# US5112818A, “2-(2-cyclopropylpyrrolidin-4-ylthio)carbapenhem derivatives” (Banyu Pharmaceutical Co., Ltd., priority 1989, dated 1992)
# Read-outs that look alike come from different tables or passages of the source.
# What was measured:
# Meth-R. S. aureus = test: relative antibacterial potency, disc diffusion test (Bauer et al.); type: cell-based; conditions: ratio to thienamycin (=1.0); larger value = higher activity
# Description: The compounds of the present invention show strong antibacterial activities against various gram positive bacteria and gram negative bacteria. As representative examples, the antibacterial activities of the compounds of the present invention described in the Examples, were measured by a disc diffusion test by the method of Bauer et al. (Amer. J. Clin. Pathol., vol. 45, p. 493 (1966)). Thienamycin or imipenem was used as the internal standard.
# MIC of each test compound was calculated from the diameter of the inhibition ring formed by the disc containing the test compound by using the calculation formula reported by Humphrey and Lightbown (J. Gen. Microbiol., vol. 7, p. 129 (1952)). For each microorganism, a geometrical average of MIC was obtained, and the activity ratio to thienamycin was calculated.
# The antibacterial activities are represented by the ratio to thienamycin (=1.0), whereby the larger the numerical value, the higher the activities.
# S. aureus JS1 = test: in vitro antibacterial activity, agar plate dilution method (MIC); type: cell-based; conditions: Staphylococcus aureus; 10^6 CFU/ml; 37° C., 16 hours; S. aureus JS1, lactamase producing microorganism
# Description: (§1) One platinum loopful of each test microorganism incubated overnight in Mueller Hinton broth, was inoculated to Mueller Hinton agara (inoculum size: 10^6 CFU/ml). Such culture media contained antibacterial agents in various concentrations. After incubation at 37° C. for 16 hours, the minimum inhibitory concentrations (MIC: μg/ml) were measured.
# S. aureus 209P NIHJ JC1 = test: as above; type: cell-based; conditions: Staphylococcus aureus, 10^6 CFU/ml, 37° C., 16 hours
# Description: as §1
# S. aureus MB4970 = test: as above; type: cell-based; conditions: Staphylococcus aureus, 10^6 CFU/ml, 37° C., 16 hours
# Description: as §1
# renal dehydropeptidase I = conditions: cited from earlier work
# DHP-I [1] = test: DHP-I susceptibility (method by Kropp et al.); conditions: ratio to imipenem (=1.0); smaller value = higher stability
# Description: (§2) The DHP-I susceptibility was quantitatively analyzed by the method by Kropp et al., Antimicrob.,- Agents Chemother., vol. 22, p. 62-70 (1982), whereby the smaller the numerical value representing the ratio to imipenem (=1.0), the higher the stability.
# [2] = test system: highly methicillin resistant Staphylococcus aureus; conditions: in words; clinical field; cited from earlier work
# [3] = in words; background art; cited from earlier work
# β-lactamase = conditions: in words; cited from earlier work
# kidney = conditions: in words; due to the decomposition products; cited from earlier work
# [4] = test system: gram positive bacteria and gram negative bacteria; conditions: in words, cited from earlier work
# [5] = test system: imipenem resistant Pseudomonas aeruginosa; conditions: in words; clinical field; cited from earlier work
# [6] = test system: methicillin resistant Staphylococcus aureus; conditions: in words; background art; cited from earlier work
# DHP-I [7] = test system: DHP-I
# Description: as §2
# [8] = in words; cited from earlier work
smiles,measurement,setting,value
"C[C@@H](O)[C@H]1C(=O)N2C(C(=O)O)=C(S[C@@H]3CN[C@H](C4CC4C(N)=O)C3)[C@H](C)[C@H]12 (single isomer, unassigned) [Example 6]","Relative antibacterial potency, Meth-R. S. aureus",Meth-R. S. aureus,5.41
same,MIC,S. aureus JS1,0.78 µg/mL
same,MIC,S. aureus 209P NIHJ JC1,0.025 µg/mL
same,MIC,S. aureus MB4970,0.05 µg/mL
C[C@@H](O)[C@H]1C(=O)N2C(C(=O)O)=C(SCCN=CN)C[C@H]12 [imipenem],decomposition by / stability against DHP-I,"renal dehydropeptidase I; in words, background art",likely to be decomposed by DHP-I in the human kidney
same,DHP-I susceptibility,DHP-I [1],1.0
same,treating effects against imipenem-resistant highly methicillin resistant Staphylococcus aureus,[2],does not show adequate treating effects
same,chemical stability,[3],remarkably improved over thienamycin
same,β-lactamase resistance,β-lactamase,has β-lactamase resistance
same,toxicity against the kidney,kidney,presents toxicity against the kidney due to the decomposition products
same,"Relative antibacterial potency, Meth-R. S. aureus",Meth-R. S. aureus,2.57
same,antibacterial activities relative to thienamycin,[4]; various types of bacteria,equal or higher level than thienamycin
same,treating effects against imipenem resistant Pseudomonas aeruginosa,[5],does not show adequate treating effects
C[C@@H](O)[C@H]1C(=O)N2C(C(=O)O)=C(S[C@@H]3CN[C@H](C(=O)N(C)C)C3)[C@H](C)[C@H]12 [meropenem],decomposition by / stability against DHP-I,renal dehydropeptidase I,stability against DHP-I substantially improved
same,antibacterial activities against highly methicillin resistant Staphylococcus aureus,[6],not adequate
same,DHP-I susceptibility,DHP-I [7],0.12
same,"Relative antibacterial potency, Meth-R. S. aureus",Meth-R. S. aureus,3.15
C[C@@H](O)[C@H]1C(=O)N2C(C(=O)O)=C(SCCN)C[C@H]12 [thienamycin],decomposition by / stability against DHP-I,"renal dehydropeptidase I; in words, background art",likely to be decomposed by a certain enzyme in vivo such as renal dehydropeptidase I
same,chemical stability,[3],chemically unstable
same,antibacterial activities,[4]; gram positive and gram negative bacteria,strong antibacterial activities over a wide range against gram positive bacteria and gram negative bacteria
same,recovery rate in the urine,[8],low
